The source of these data is patent US11986489B2, “Method of treating a disease using a glycolytic dependent compound” (Ethicon, Inc., priority 2015, dated 2024).

As a reminder, the half-life is the time in which the quantity being followed falls by half.

The nature of series [1]: WST-1 viability of NHDF cells treated with Dox with or without ORC. Format: cell-based, Human. The conditions noted are these: human, NHDF cells (normal human dermal fibroblasts), NHDF cells, 16-18 hours, WST-1; for cytotoxicity at 5 μM: Dox 5 μM; for cytotoxicity at 25 μM: Dox 25 μM; for cytotoxicity at 50 μM: Dox 50 μM. The protocol:
(§1) NU-KNIT® (ORC) patch: NU-KNIT® was cut with an 8 mm punch to form 8 mm circles of Nuknit. These circles were then cut into 4 quarters using sterile scissors (each quarter has a weight of 2.2-2.7 mg, Average 2.44 mg, n=10).
(§2) Day 1: Two 24-well plates were seeded with 15,000 NHDF cells/well using a 15,000 cells/ml suspension according to the plate layout below (representing about 20%-30% confluency of cells).
(§3) The plates were incubated overnight, for 16-18 hours, in a water jacketed 37° C. incubator with 5% CO2.
(§4) The cells at this stage were about 40%-50% confluent.
(§5) Immediately, a NuKnit® ¼ punch was added to the wells according to the plate layout.
(§6) Day 3: The untreated cells at this stage were about 60%-70% confluent. The plate's medium was decanted and replaced with 0.5 ml of Growth medium. 50 μl of WST-1 were added to each well. The plates were then incubated for an additional 4 hours.
(§7) The plates were then read with an ELISA reader at 450 nm and 650 nm Optical Density (OD). Wells containing medium with no cells were used as blank.
(§8) The results obtained by ELISA reader at 650 nm were subtracted from the results obtained at 450 nm per each well separately=sample OD.
(§9) The relative viability of the rest of the wells was calculated according to the following calculation: sample OD/untreated OD×100. The results were depicted in FIG. 2.
(§10) The following experiment was set in order to evaluate the effect of ORC on Doxorubicin activity on Normal Human Dermal Fibroblast (NHDF) cells. Doxorubicin activity will be expressed in relative cell viability compared to untreated cells. […] The final viability of the cells was evaluated with WST-1 staining. WST-1 is a Tetrazolium salts that is only cleaved to Formazan in metabolically active intact cells.
For orientation: Tetrazolium assays rely on reduction of a dye to a coloured formazan, in cell work by metabolically active cells.

Series [2] concerns Normal Human Dermal Fibroblast (NHDF) cells. The description is as above. The class given is cell-based. The conditions noted are these: for Potency increase of Dox in the presence of ORC: with ORC divided by without ORC. On the procedure: as §1, §2, §3, §4, §5, §6, §7, §8, §9, §10
For series [3] the following is noted: human, in vivo. From the text:
Clinically, a half-life of a given compound is the amount of time required for the compound to fall e.g. in the circulation to half its initial administered dose i.e. how long it takes for the body to remove half of the administered dose. Typically, compounds are active for a multiple of their half-life, for example, five times the half-life can be used to describe the time period for a therapy's treatment. In the case of many therapies, this translates into days where the drug is having an effect on targeted tissues. All clinically used and approved drugs will have well described time ranges and amounts for calculating dose and therapy plans. In one embodiment, the performance of the compound in addressing the underlying pathology e.g. malignancy is adjusted in view of the presence of ORC, and/or OC that can localize the therapy at the target site during the limited time the compound is in the body and before it is being processed.
In certain embodiments a “therapeutically effective dose” refers to the median effective dose ED50, for a particular know drug. […] Mean: 1-3 hours. Typically, 5 times the elimination half-life will give the time at which point the drug has been completely eliminated from the body. For Doxorubicin this would be 5-15 hours.

For series [4] the following is noted: in vivo; cited from earlier work.
Where [5] appears, read: with ORC (¼ Nuknit of 8 mm), read-out: With ORC relative reduction of viability (%).
Where [6] appears, read: without ORC, read-out: Without ORC relative reduction of viability (%).

Structures can show the parent of a compound that is named as a salt. Where two headings read alike, the source gives them in different places.

Regarding `COc1cccc2c1C(=O)c1c(O)c3c(c(O)c1C2=O)C[C@@](O)(C(=O)CO)C[C@@H]3O[C@H]1C[C@H](N)[C@H](O)[C@H](C)O1` [Dox, Doxorubicin hydrochloride], the cytotoxicity at 5 μM in series [1] (setting [5]) was around 55%; in series [1] (setting [6]) it was around 30%. The cytotoxicity at 25 μM in series [1] (setting [5]) is around 74%; in series [1] (setting [6]) it was around 40%. Further, the cytotoxicity at 50 μM in series [1] (setting [5]) worked out at 80%; in series [1] (setting [6]) it was 65%. Further, the “Potency increase of Dox in the presence of ORC” value in series [2] (Dox 5 μM) came out at 1.89; in series [2] (Dox 25 μM), 1.83; in series [2] (Dox 50 μM), 1.24. Also, in series [2] (NHDF cells, in the absence of ORC), the “Dox concentration at which the viability reduction is already evident” value is 5.0 µM. For the same compound, the “Effect of Dox on the viability of NHDF cells” value in series [2] (in the absence of ORC) is “reduces the viability of NHDF cells, in the absence of ORC in a dose dependent manner”. The “time at which the drug has been completely eliminated from the body” value in series [3] was 5 to 15 h. In series [4], the “biological half-life, mean” value was 1-3 hours. For the same compound, the “biological half-life, triphasic, third phase” value in series [4] was 30 hours.

For `CO[C@H]1C[C@@H]2CC[C@@H](C)[C@@](O)(O2)C(=O)C(=O)N2CCCC[C@H]2C(=O)O[C@H]([C@H](C)C[C@@H]2CC[C@@H](OCCO)[C@H](OC)C2)CC(=O)[C@H](C)/C=C(\C)[C@@H](O)[C@@H](OC)C(=O)[C@H](C)C[C@H](C)/C=C/C=C/C=C/1C` [Everolimus], the half-life entry in series [4] is listed as “about 30 hours”.

Take `Cc1ccc(Nc2nccc(N(C)c3ccc4c(C)n(C)nc4c3)n2)cc1S(N)(=O)=O` [Pazopanib]: in series [4], the half-life entry is listed as “about 31 hours”.

Consider `CNC(=O)c1cc(Oc2ccc(NC(=O)Nc3ccc(Cl)c(C(F)(F)F)c3)cc2)ccn1` [Sorafenib], for which, in series [4], the half-life is 20 to 27 h.

Turning to `CCN(CC)CCNC(=O)c1c(C)[nH]c(/C=C2\C(=O)Nc3ccc(F)cc32)c1C` [Sunitinib], in series [4], the half-life was 41 to 86 h.

As for `CO[C@H]1C[C@@H]2CC[C@@H](C)[C@@](O)(O2)C(=O)C(=O)N2CCCC[C@H]2C(=O)O[C@H]([C@H](C)C[C@@H]2CC[C@@H](OC(=O)C(C)(CO)CO)[C@H](OC)C2)CC(=O)[C@H](C)/C=C(\C)[C@@H](O)[C@@H](OC)C(=O)[C@H](C)C[C@H](C)/C=C/C=C/C=C/1C` [Temsirolimus], the half-life result in series [4] was “about 17.3 hours”.
